These results are taken from patent US20170196834A1, “PREPARATION AND APPLICATION OF FLAVONOL AS BRAIN-TARGETING SYNERGIST” (GUANGDONG PHARMACEUTICAL UNIVERSITY, priority 2014, published 2017).

Structures are written as SMILES. Read-outs that look alike come from different tables or passages of the source.

What all share (type): in vivo
Data set [1] can be described thus: Resveratrol in blood and brain tissues 0.5 h after intragastric administration, UPLC-MS (Example 4). Conditions: rat, oral, SD rats, 100 mg/kg resveratrol, 0.5 h after administration. On the procedure: Treatment Group: LXN3 was made into suspension. 5 SD rats were administered the suspension at the dose of 100 mg/kg resveratrol and the volume of 20 ml/kg by intragastric administration;
Control group: Resveratrol was made into suspension. 5 SD rats were administered the suspension at the dose of 100 mg/kg resveratrol and the volume of 20 ml/kg by intragastric administration;
The rats were derw blood 0.5 h after administration and then sacrificed under anaesthesia. Brain tissues were taken to prepare brain homogenates. The content of resveratrol in the blood and brain tissues were detected by UPLC-MS.

Data set [2] deals with MCAO forebrain ischemia. Nature of the data set: MCAO forebrain ischemia rats, improvement rate of cerebral infarction area (Example 4). The conditions noted are these: gavage, 7 days after administration. As for the experimental part:
In addition, 30 rats of MCAO forebrain ischemia were prepared, and they were administered solvent saline, 100 mg/kg LXN3, and resveratrol by gavage at 20 ml/kg, 10 rats per group; […]

Data set [3] deals with MCAO forebrain ischemia. Briefly: MCAO forebrain ischemia rats, improvement rate of cerebral infarction area (Example 2). The conditions noted are these: gavage, 7 days after administration. As for the experimental part:
In addition, […] of MCAO forebrain ischemia were prepared, and they were administered with solvent saline, 100 mg/kg LXN11 and ginsenoside Rg1 by gavage at 20 ml/kg, 10 rats per group; Animals were sacrificed 7 days after administration, to observe the improvement rate of cerebral infarction area.

For `Oc1ccc(C=Cc2cc(O)cc(O)c2)cc1` [Resveratrol], the concentration at 0.5 h in data set [1] (brain, read-out: Resveratrol content in brain tissues) was 3.12 ± 1.29 ng/g; in data set [1] (plasma, read-out: Plasma concentration of resveratrol) it was 5580 ± 1280 ng/mL. In the data set with MCAO forebrain ischemia [2], the “Improvement rate of cerebral infarction area” value is listed as 20.1 ± 8.6%.
Turning to `CC(C)=CCC[C@](C)(O[C@@H]1O[C@H](CO)[C@@H](O)[C@H](O)[C@H]1O)[C@H]1CC[C@]2(C)[C@@H]1[C@H](O)C[C@@H]1[C@@]3(C)CC[C@H](O)C(C)(C)[C@@H]3[C@@H](O[C@@H]3O[C@H](CO)[C@@H](O)[C@H](O)[C@H]3O)C[C@]12C` [Rg1, ginsenoside Rg1], in the data set with MCAO forebrain ischemia [3], the “Improvement rate of cerebral infarction area” value came to 26.1 ± 7.1%.
